Assay results published in patent publication US6525001B1, “Substituted pyrimidine and pyridine herbicides” (Mid-American Commercialization Corporation, priority 1997, dated 2003).

Experiments:
Format in all cases: in vivo
Set-up in all cases: key: 0 is no effect; 10 is complete control
soybean (Glycine max) = test: Test B pre-/postemergence
Summary of the method: (§1)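 Scored visually 0 (none) to 10 (complete control) against untreated plants after twelve to sixteen greenhouse days. Test chemicals, formulated in surfactant-containing non-phytotoxic solvent, applied to soil after planting and, separately, onto 1- to 4-leaf (2–18 cm) plants.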

[1] = system: momingglory (Ipomoea hederacea); test: Test B pre-/postemergence
Summary of the method: as §1

[2] = system: purple nutsedge (Cyperus rotundus); test: Test B pre-/postemergence
Summary of the method: as §1

[3] = system: velvetleaf (Abutilon theophrasti); test: Test B pre-/postemergence
Summary of the method: as §1

[4] = system: giant foxtail (Setaria faberii); test: Test B pre-/postemergence
Summary of the method: as §1

rape (Brassica napus) = test: Test B pre-/postemergence
Summary of the method: as §1

[5] = system: bedstraw (Galium aparine); test: Test B pre-/postemergence; conditions: for Bedstraw plant response rating: Preemergence
Summary of the method: as §1

[6] = system: blackgrass (Alopecurus myosuroides); test: Test B pre-/postemergence; conditions: for Blackgrass plant response rating: Preemergence
Summary of the method: as §1

corn (Zea mays) = test: Test B pre-/postemergence; conditions: for Corn plant response rating: Preemergence
Summary of the method: as §1

[7] = system: crabgrass (Digitaria sanguinalis); test: Test B pre-/postemergence; conditions: for Crabgrass plant response rating: Preemergence
Summary of the method: as §1

[8] = system: sugar beet (Beta vulgaris); test: Test B pre-/postemergence
Summary of the method: as §1

[9] = system: cocklebur (Xanthium strumarium); test: Test B pre-/postemergence; conditions: for Cocklebur plant response rating: Preemergence
Summary of the method: as §1

[10] = system: wheat (Triticum aestivum); test: Test B pre-/postemergence
Summary of the method: as §1

[11] = system: pigweed (Amaranthus retroflexus); test: Test B pre-/postemergence
Summary of the method: as §1

[12] = system: broadleaf signalgrass (Brachiaria decumbens); test: Test B pre-/postemergence; conditions: for B. signalgrass plant response rating: Preemergence
Summary of the method: as §1

wild oat (Avena fatua) = test: Test B pre-/postemergence
Summary of the method: as §1

rice (Oryza sativa) = test: Test B flood test
Summary of the method: (§2)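 Flood test on plants grown to the 2-leaf stage; treated plants kept in greenhouse twelve to sixteen days, then visually rated against controls on a 0 (no effect) to 10 (complete control) scale.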

[13] = system: bamyardgrass (Echinochloa crus-galli); test: Test B flood test
Summary of the method: as §2

[14] = system: duck salad (Heteranthera limosa); test: Test B flood test
Summary of the method: as §2

[15] = system: smallflower flatsedge (Cyperus difformis); test: Test B flood test
Summary of the method: as §2

[16] = Rate 250 g/ha, Postemergence (so in the source)
[17] = Rate 62 g/ha, Postemergence (flood test)
[18] = Rate 125 g/ha, Postemergence section (flood test species)
[19] = Rate 250 g/ha, Postemergence (flood test species)
[20] = Rate 125 g/ha, Postemergence, flood test

Cc1cnc(-c2cccc(C(F)(F)F)c2)nc1Cc1cccc(C#N)c1 [Compound 39]
4: Plant response rating, Rape (rape (Brassica napus); Rate 250 g/ha, Postemergence) | Plant response rating, Bedstraw ([5]; Rate 250 g/ha, Postemergence)
3: Plant response rating, Bedstraw ([5]; Rate 62 g/ha, Postemergence) | Plant response rating, Bedstraw ([5]; Rate 125 g/ha, Postemergence) | Plant response rating, Redroot pigweed ([11]; Rate 250 g/ha, Postemergence)
5: Plant response rating, Cocklebur ([9]; Rate 250 g/ha, Postemergence)
2: Plant response rating, Soybean (soybean (Glycine max); Rate 250 g/ha, Postemergence) | Plant response rating, Cocklebur ([9]; Rate 62 g/ha, Postemergence) | Plant response rating, Cocklebur ([9]; Rate 125 g/ha, Postemergence) | Plant response rating, Redroot pigweed ([11]; Rate 62 g/ha, Postemergence) | Redroot pigweed plant response rating ([11]; Rate 125 g/ha, Postemergence) | S. Flatsedge plant response rating [15, 18] | Plant response rating, S. Flatsedge [15, 19]
0: Soybean plant response rating (soybean (Glycine max); Rate 62 g/ha, Preemergence) | Plant response rating, Soybean (soybean (Glycine max); Rate 125 g/ha, Preemergence) | Plant response rating, Soybean (soybean (Glycine max); [16]) | Morningglory plant response rating ([1]; Rate 62 g/ha, Preemergence) | Morningglory plant response rating ([1]; Rate 125 g/ha, Preemergence) | Plant response rating, Morningglory [1, 16] | Plant response rating, Nutsedge ([2]; Rate 62 g/ha, Postemergence) | Nutsedge plant response rating ([2]; Rate 62 g/ha, Preemergence) | Nutsedge plant response rating ([2]; Rate 125 g/ha, Postemergence) | Nutsedge plant response rating ([2]; Rate 125 g/ha, Preemergence) | Plant response rating, Nutsedge ([2]; Rate 250 g/ha, Postemergence) | Plant response rating, Nutsedge [2, 16] | Plant response rating, Velvetleaf ([3]; Rate 62 g/ha, Postemergence) | Velvetleaf plant response rating ([3]; Rate 62 g/ha, Preemergence) | Plant response rating, Velvetleaf ([3]; Rate 125 g/ha, Preemergence) | Plant response rating, Velvetleaf [3, 16] | Plant response rating, Giant foxtail ([4]; Rate 62 g/ha, Postemergence) | Giant foxtail plant response rating ([4]; Rate 62 g/ha, Preemergence) | Giant foxtail plant response rating ([4]; Rate 125 g/ha, Preemergence) | Plant response rating, Giant foxtail [4, 16] | Rape plant response rating (rape (Brassica napus); Rate 62 g/ha, Preemergence) | Rape plant response rating (rape (Brassica napus); Rate 125 g/ha, Preemergence) | Plant response rating, Rape (rape (Brassica napus); [16]) | Bedstraw plant response rating ([5]; Rate 62 g/ha) | Bedstraw plant response rating ([5]; Rate 125 g/ha) | Plant response rating, Bedstraw [5, 16] | Blackgrass plant response rating ([6]; Rate 62 g/ha) | Blackgrass plant response rating ([6]; Rate 125 g/ha) | Plant response rating, Blackgrass [6, 16] | Corn plant response rating (corn (Zea mays); Rate 62 g/ha) | Corn plant response rating (corn (Zea mays); Rate 125 g/ha) | Plant response rating, Corn (corn (Zea mays); [16]) | Plant response rating, Crabgrass ([7]; Rate 62 g/ha, Postemergence) | Crabgrass plant response rating ([7]; Rate 62 g/ha) | Plant response rating, Crabgrass ([7]; Rate 125 g/ha, Postemergence) | Crabgrass plant response rating ([7]; Rate 125 g/ha) | Plant response rating, Crabgrass [7, 16] | Sugarbeets plant response rating ([8]; Rate 62 g/ha, Preemergence) | Plant response rating, Sugarbeets ([8]; Rate 125 g/ha, Preemergence) | Plant response rating, Sugarbeets [8, 16] | Cocklebur plant response rating ([9]; Rate 62 g/ha) | Cocklebur plant response rating ([9]; Rate 125 g/ha) | Plant response rating, Cocklebur [9, 16] | Wheat plant response rating ([10]; Rate 62 g/ha, Postemergence) | Wheat plant response rating ([10]; Rate 62 g/ha, Preemergence) | Plant response rating, Wheat ([10]; Rate 125 g/ha, Preemergence) | Plant response rating, Wheat [10, 16] | Redroot pigweed plant response rating ([11]; Rate 62 g/ha, Preemergence) | Redroot pigweed plant response rating ([11]; Rate 125 g/ha, Preemergence) | Plant response rating, Redroot pigweed [11, 16] | B. signalgrass plant response rating ([12]; Rate 62 g/ha) | B. signalgrass plant response rating ([12]; Rate 125 g/ha) | Plant response rating, B. signalgrass ([12]; Rate 250 g/ha, Postemergence as printed in head r139 (second section for compounds 26-50)) | Wild oats plant response rating (wild oat (Avena fatua); Rate 62 g/ha, Preemergence) | Plant response rating, Wild oats (wild oat (Avena fatua); Rate 125 g/ha, Preemergence) | Plant response rating, Wild oats (wild oat (Avena fatua); [16]) | Plant response rating, Rice (rice (Oryza sativa); [17]) | Rice plant response rating (rice (Oryza sativa); [18]) | Plant response rating, Rice (rice (Oryza sativa); [19]) | Plant response rating, Barnyardgrass [13, 17] | Plant response rating, Barnyardgrass [13, 20] | Plant response rating, Barnyardgrass [13, 19] | Plant response rating, Ducksalad [14, 17] | Plant response rating, Ducksalad [14, 20] | Plant response rating, Ducksalad [14, 19] | Plant response rating, S. Flatsedge [15, 17]
7: Plant response rating, Sugarbeets ([8]; Rate 62 g/ha, Postemergence)
9: Sugarbeets plant response rating ([8]; Rate 125 g/ha, Postemergence)
1: Plant response rating, Soybean (soybean (Glycine max); Rate 62 g/ha, Postemergence) | Soybean plant response rating (soybean (Glycine max); Rate 125 g/ha, Postemergence) | Plant response rating, Morningglory ([1]; Rate 62 g/ha, Postemergence) | Morningglory plant response rating ([1]; Rate 125 g/ha, Postemergence) | Plant response rating, Morningglory ([1]; Rate 250 g/ha, Postemergence) | Velvetleaf plant response rating ([3]; Rate 125 g/ha, Postemergence) | Plant response rating, Velvetleaf ([3]; Rate 250 g/ha, Postemergence) | Giant foxtail plant response rating ([4]; Rate 125 g/ha, Postemergence) | Plant response rating, Giant foxtail ([4]; Rate 250 g/ha, Postemergence) | Plant response rating, Rape (rape (Brassica napus); Rate 62 g/ha, Postemergence) | Rape plant response rating (rape (Brassica napus); Rate 125 g/ha, Postemergence) | Plant response rating, Blackgrass ([6]; Rate 62 g/ha, Postemergence) | Plant response rating, Blackgrass ([6]; Rate 125 g/ha, Postemergence) | Plant response rating, Blackgrass ([6]; Rate 250 g/ha, Postemergence) | Plant response rating, Corn (corn (Zea mays); Rate 62 g/ha, Postemergence) | Plant response rating, Corn (corn (Zea mays); Rate 125 g/ha, Postemergence) | Plant response rating, Corn (corn (Zea mays); Rate 250 g/ha, Postemergence) | Plant response rating, Crabgrass ([7]; Rate 250 g/ha, Postemergence) | Wheat plant response rating ([10]; Rate 125 g/ha, Postemergence) | Plant response rating, Wheat ([10]; Rate 250 g/ha, Postemergence) | Plant response rating, B. signalgrass ([12]; Rate 62 g/ha, Postemergence) | Plant response rating, B. signalgrass ([12]; Rate 125 g/ha, Postemergence) | Plant response rating, B. signalgrass ([12]; Rate 250 g/ha, Postemergence) | Wild oats plant response rating (wild oat (Avena fatua); Rate 62 g/ha, Postemergence) | Wild oats plant response rating (wild oat (Avena fatua); Rate 125 g/ha, Postemergence) | Plant response rating, Wild oats (wild oat (Avena fatua); Rate 250 g/ha, Postemergence)
10: Plant response rating, Sugarbeets ([8]; Rate 250 g/ha, Postemergence)
